Reference: PMC4457528, “Identification of Novel Small Molecule Inhibitors of Oncogenic RET Kinase” (PLoS ONE, 2015)
Read-outs that look alike come from different tables or passages of the source.

Tests used:
Assay in all cases: KinomeScan kinase panel, single concentration 10 µM
Format in all cases: binding
KinomeScan kinase panel [1] = biological target: T1, KinomeScan kinase panel (Homo sapiens, UniProt Q04759); settings: 10 µM, read-out: score (%)
T1 construct: purchased DiscoveRx (KinomeScan)

KinomeScan kinase panel [2] = biological target: T2, KinomeScan kinase panel (Homo sapiens, UniProt Q86V86); settings: PIM3, 10 µM; read-out: score (%)
T2 construct: purchased DiscoveRx (KinomeScan)

KinomeScan kinase panel [3] = biological target: T3, KinomeScan kinase panel (Homo sapiens, UniProt Q9NSY1); settings: BIKE, 10 µM; read-out: score (%)
T3 construct: purchased DiscoveRx (KinomeScan)

KinomeScan kinase panel [4] = biological target: T4, KinomeScan kinase panel (Homo sapiens, UniProt Q9HCP0); settings: CSNK1G1, 10 µM
T4 construct: purchased DiscoveRx (KinomeScan)

KinomeScan kinase panel [5] = biological target: T5, KinomeScan kinase panel (Homo sapiens, UniProt P22607, G697C); settings: FGFR3(G697C), 10 µM; read-out: score (%)
T5 construct: purchased DiscoveRx (KinomeScan)

KinomeScan kinase panel [6] = biological target: T6, KinomeScan kinase panel (Homo sapiens, UniProt P53355); settings: DAPK1, 10 µM; read-out: score (%)
T6 construct: purchased DiscoveRx (KinomeScan)

KinomeScan kinase panel [7] = biological target: T7, KinomeScan kinase panel (Homo sapiens, UniProt P00533, L861Q); settings: EGFR(L861Q), 10 µM
T7 construct: purchased DiscoveRx (KinomeScan)

KinomeScan kinase panel [8] = biological target: T8, KinomeScan kinase panel (Homo sapiens, UniProt Q16659); settings: ERK3, 10 µM; read-out: score (%)
T8 construct: purchased DiscoveRx (KinomeScan)

KinomeScan kinase panel [9] = biological target: T9, KinomeScan kinase panel (Homo sapiens, UniProt P04629); settings: 10 µM, read-out: score (%)
T9 construct: purchased DiscoveRx (KinomeScan)

KinomeScan kinase panel [10] = biological target: T10, KinomeScan kinase panel (Homo sapiens, UniProt O96013); settings: PAK4, 10 µM; read-out: score (%)
T10 construct: purchased DiscoveRx (KinomeScan)

KinomeScan kinase panel [11] = biological target: T11, KinomeScan kinase panel (Homo sapiens, UniProt Q16832); settings: DDR2, 10 µM; read-out: score (%)
T11 construct: purchased DiscoveRx (KinomeScan)
T11 sequence (Q16832 22-855): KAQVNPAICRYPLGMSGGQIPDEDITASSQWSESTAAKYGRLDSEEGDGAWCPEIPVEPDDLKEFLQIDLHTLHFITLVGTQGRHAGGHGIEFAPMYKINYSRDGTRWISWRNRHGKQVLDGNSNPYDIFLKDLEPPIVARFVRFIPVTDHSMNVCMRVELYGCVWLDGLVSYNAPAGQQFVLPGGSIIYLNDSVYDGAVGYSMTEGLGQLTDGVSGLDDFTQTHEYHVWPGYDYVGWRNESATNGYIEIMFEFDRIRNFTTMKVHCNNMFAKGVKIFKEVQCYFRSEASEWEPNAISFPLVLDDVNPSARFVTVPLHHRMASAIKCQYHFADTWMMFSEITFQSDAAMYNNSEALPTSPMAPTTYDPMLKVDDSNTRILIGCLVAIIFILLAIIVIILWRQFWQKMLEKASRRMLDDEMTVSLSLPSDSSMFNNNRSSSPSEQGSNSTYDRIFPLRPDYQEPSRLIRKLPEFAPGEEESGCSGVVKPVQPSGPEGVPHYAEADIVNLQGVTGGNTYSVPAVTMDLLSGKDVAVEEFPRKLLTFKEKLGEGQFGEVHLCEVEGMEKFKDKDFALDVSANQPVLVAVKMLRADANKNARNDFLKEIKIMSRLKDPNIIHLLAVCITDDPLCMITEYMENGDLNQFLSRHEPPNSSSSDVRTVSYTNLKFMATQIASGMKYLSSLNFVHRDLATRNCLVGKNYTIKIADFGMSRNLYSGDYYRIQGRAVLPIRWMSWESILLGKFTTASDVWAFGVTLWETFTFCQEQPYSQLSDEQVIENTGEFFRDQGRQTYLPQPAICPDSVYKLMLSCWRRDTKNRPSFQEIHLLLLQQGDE

KinomeScan kinase panel [12] = biological target: T12, KinomeScan kinase panel (Homo sapiens, UniProt Q02779); settings: MLK2, 10 µM; read-out: score (%)
T12 construct: purchased DiscoveRx (KinomeScan)

KinomeScan kinase panel [13] = biological target: T13, KinomeScan kinase panel (Homo sapiens, UniProt P22455); settings: FGFR4, 10 µM; read-out: score (%)
T13 construct: purchased DiscoveRx (KinomeScan)

KinomeScan kinase panel [14] = biological target: T14, KinomeScan kinase panel (Homo sapiens, UniProt Q96NX5); settings: CAMK1G, 10 µM; read-out: score (%)
T14 construct: purchased DiscoveRx (KinomeScan)

KinomeScan kinase panel [15] = biological target: T15, KinomeScan kinase panel (Homo sapiens, UniProt P06213); settings: INSR, 10 µM; read-out: score (%)
T15 construct: purchased DiscoveRx (KinomeScan)

KinomeScan kinase panel [16] = biological target: T16, KinomeScan kinase panel (Homo sapiens, UniProt Q13555); settings: CAMK2G, 10 µM; read-out: score (%)
T16 construct: purchased DiscoveRx (KinomeScan)

KinomeScan kinase panel [17] = biological target: T17, KinomeScan kinase panel (Homo sapiens, UniProt P43403); settings: kinase ZAP70; 10 µM; read-out: score (%)
T17 construct: purchased DiscoveRx (KinomeScan)
T17 sequence (P43403 1-619): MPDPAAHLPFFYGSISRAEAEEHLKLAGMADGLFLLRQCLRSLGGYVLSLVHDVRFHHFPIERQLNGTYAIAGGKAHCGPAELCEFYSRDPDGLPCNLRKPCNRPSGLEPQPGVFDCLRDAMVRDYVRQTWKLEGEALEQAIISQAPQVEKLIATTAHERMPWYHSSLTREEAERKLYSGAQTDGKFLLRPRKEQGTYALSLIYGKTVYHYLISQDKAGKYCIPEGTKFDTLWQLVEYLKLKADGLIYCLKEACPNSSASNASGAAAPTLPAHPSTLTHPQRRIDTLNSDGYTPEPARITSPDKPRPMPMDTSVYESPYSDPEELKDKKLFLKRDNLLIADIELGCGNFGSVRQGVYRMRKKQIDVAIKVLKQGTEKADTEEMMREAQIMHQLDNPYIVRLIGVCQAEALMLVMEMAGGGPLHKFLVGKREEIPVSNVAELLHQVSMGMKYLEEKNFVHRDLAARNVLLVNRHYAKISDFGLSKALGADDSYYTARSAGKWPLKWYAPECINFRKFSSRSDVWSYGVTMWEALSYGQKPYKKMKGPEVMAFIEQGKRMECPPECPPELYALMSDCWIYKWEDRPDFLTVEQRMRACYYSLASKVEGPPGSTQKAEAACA

T6 sequence (P53355 whole entry): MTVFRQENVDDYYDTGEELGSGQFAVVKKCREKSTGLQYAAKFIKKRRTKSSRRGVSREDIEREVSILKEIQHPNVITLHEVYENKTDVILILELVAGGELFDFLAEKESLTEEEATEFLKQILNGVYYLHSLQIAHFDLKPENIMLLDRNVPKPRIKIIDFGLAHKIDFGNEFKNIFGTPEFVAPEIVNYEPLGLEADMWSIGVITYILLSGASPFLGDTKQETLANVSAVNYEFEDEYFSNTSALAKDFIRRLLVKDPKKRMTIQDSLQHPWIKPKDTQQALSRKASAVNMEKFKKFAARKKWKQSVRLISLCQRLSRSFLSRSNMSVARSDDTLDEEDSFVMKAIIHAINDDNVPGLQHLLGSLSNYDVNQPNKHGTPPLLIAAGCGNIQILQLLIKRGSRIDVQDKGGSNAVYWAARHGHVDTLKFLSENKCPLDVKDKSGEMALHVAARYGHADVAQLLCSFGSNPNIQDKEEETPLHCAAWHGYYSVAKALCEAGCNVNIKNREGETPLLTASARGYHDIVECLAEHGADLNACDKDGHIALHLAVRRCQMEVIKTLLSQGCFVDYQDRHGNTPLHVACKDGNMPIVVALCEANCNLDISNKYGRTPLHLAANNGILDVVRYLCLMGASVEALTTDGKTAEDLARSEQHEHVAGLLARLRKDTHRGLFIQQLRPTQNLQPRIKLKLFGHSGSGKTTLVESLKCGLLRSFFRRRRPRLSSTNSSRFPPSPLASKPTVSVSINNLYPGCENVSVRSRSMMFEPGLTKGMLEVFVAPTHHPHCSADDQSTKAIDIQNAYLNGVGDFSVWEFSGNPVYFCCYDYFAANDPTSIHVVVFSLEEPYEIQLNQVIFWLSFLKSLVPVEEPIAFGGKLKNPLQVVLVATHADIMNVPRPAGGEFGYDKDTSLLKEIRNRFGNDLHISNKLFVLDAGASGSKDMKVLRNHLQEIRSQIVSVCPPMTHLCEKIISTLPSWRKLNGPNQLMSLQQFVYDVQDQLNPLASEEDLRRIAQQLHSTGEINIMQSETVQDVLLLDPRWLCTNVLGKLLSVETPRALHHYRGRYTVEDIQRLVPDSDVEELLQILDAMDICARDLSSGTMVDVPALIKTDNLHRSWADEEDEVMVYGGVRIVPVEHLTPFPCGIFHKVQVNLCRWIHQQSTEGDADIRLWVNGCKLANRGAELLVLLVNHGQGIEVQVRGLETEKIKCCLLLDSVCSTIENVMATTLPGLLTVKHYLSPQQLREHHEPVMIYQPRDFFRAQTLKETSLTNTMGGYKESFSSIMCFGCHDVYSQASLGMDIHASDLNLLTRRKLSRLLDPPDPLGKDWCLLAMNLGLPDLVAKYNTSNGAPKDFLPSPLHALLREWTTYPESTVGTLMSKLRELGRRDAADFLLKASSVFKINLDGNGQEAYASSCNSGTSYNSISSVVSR
T15 sequence (P06213 28-1382): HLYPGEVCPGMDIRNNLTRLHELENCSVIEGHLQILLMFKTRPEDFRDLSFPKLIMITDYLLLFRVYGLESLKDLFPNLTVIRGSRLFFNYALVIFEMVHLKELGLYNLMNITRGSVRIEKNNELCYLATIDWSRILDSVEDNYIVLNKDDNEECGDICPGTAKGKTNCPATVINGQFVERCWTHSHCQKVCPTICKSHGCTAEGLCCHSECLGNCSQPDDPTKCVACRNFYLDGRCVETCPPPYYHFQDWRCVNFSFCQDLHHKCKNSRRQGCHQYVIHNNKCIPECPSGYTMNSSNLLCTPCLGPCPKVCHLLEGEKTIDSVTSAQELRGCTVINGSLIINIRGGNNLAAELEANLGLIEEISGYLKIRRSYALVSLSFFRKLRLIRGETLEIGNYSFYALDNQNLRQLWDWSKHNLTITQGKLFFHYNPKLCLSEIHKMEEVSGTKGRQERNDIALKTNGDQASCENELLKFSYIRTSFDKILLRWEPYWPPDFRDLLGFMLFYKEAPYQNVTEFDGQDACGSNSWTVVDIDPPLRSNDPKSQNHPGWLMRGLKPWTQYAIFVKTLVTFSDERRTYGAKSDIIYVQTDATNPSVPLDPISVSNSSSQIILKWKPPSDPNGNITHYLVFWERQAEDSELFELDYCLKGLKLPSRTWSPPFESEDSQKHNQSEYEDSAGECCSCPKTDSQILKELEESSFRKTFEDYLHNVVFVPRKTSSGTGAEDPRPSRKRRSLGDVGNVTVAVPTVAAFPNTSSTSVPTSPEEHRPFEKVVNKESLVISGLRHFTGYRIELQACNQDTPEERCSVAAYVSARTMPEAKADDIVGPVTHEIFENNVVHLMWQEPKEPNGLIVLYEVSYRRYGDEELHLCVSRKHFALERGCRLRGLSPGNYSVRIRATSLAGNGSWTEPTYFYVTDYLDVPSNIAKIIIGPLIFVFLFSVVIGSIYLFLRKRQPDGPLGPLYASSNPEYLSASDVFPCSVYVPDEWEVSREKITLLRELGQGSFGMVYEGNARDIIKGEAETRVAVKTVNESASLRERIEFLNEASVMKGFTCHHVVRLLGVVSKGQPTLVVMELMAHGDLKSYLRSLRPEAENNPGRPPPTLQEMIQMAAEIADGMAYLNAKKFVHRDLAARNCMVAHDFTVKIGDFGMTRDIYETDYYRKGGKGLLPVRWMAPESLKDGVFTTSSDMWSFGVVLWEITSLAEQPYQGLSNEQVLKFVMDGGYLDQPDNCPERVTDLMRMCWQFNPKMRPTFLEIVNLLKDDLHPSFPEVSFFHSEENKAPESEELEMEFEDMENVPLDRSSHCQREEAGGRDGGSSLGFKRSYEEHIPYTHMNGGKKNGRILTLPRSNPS
T5 sequence (P22607 23-806 G697C): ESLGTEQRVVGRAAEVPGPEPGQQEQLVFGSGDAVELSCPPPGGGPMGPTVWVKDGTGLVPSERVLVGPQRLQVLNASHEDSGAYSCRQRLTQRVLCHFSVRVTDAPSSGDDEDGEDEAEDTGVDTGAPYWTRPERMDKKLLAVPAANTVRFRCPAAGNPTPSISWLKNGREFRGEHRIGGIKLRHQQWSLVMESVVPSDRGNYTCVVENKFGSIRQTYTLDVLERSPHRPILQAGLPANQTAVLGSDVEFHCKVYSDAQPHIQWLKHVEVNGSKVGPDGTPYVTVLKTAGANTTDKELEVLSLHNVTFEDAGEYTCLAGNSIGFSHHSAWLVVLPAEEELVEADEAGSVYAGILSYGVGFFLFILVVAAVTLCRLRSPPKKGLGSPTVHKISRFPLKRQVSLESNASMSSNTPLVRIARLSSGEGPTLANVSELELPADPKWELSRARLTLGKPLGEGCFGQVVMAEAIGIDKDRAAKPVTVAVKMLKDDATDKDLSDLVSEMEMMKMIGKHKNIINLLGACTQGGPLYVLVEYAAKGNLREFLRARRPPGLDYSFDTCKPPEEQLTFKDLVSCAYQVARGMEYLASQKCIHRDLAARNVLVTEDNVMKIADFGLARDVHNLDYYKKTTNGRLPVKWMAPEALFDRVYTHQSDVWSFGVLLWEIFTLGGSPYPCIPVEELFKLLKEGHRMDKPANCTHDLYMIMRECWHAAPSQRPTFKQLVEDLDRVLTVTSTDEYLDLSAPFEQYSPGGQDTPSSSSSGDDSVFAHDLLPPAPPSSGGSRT
T1 sequence (Q04759 whole entry): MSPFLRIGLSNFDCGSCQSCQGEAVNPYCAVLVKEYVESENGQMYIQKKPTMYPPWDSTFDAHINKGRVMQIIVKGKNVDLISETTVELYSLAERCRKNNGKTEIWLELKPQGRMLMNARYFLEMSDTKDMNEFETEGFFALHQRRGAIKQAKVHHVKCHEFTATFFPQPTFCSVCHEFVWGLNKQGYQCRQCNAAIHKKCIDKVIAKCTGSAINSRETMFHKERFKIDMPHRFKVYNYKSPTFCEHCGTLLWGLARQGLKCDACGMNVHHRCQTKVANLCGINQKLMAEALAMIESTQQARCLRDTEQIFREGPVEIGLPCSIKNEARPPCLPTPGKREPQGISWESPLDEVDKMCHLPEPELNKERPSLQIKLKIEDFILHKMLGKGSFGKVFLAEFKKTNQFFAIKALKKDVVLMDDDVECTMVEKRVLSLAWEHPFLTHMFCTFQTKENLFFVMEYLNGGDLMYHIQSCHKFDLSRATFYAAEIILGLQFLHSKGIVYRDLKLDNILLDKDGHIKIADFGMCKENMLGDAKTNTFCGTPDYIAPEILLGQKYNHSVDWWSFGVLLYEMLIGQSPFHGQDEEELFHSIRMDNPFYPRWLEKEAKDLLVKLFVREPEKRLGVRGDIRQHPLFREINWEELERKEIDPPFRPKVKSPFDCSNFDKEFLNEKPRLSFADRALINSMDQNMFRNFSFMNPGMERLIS
T14 sequence (Q96NX5 whole entry): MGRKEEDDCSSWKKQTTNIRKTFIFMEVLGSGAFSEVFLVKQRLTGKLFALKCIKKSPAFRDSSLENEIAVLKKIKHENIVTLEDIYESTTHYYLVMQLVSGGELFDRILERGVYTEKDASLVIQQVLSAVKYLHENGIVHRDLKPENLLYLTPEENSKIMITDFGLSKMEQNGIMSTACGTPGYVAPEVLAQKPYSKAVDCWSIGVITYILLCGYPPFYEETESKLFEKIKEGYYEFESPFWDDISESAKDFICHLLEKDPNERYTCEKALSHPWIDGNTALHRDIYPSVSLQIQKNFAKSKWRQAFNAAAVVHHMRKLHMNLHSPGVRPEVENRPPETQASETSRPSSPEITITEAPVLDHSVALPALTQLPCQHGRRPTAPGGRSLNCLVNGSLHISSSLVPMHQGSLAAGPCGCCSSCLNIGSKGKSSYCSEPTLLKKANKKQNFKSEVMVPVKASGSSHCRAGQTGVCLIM

Row | remaining binding at 10 µM (KinomeScan kinase panel [9]; TRKA) [%] | Compound | remaining binding at 10 µM (KinomeScan kinase panel [1]; kinase PRKCQ) [%] | remaining binding at 10 µM (KinomeScan kinase panel [2]) [%] | remaining binding at 10 µM (KinomeScan kinase panel [3]) [%] | score (%) (KinomeScan kinase panel [4]) | remaining binding at 10 µM (KinomeScan kinase panel [5]) [%] | remaining binding at 10 µM (KinomeScan kinase panel [6]) [%] | score (%) (KinomeScan kinase panel [7]) | remaining binding at 10 µM (KinomeScan kinase panel [8]) [%] | remaining binding at 10 µM (KinomeScan kinase panel [9]; kinase TRKA) [%] | remaining binding at 10 µM (KinomeScan kinase panel [10]) [%] | remaining binding at 10 µM (KinomeScan kinase panel [11]) [%] | remaining binding at 10 µM (KinomeScan kinase panel [12]) [%] | remaining binding at 10 µM (KinomeScan kinase panel [13]) [%] | remaining binding at 10 µM (KinomeScan kinase panel [14]) [%] | remaining binding at 10 µM (KinomeScan kinase panel [15]) [%] | remaining binding at 10 µM (KinomeScan kinase panel [16]) [%] | remaining binding at 10 µM (KinomeScan kinase panel [17]) [%] | remaining binding at 10 µM (KinomeScan kinase panel [1]; PRKCQ) [%]
1 |  | CCN1CCN(Cc2ccc(NC(=O)c3ccc(C)c(C#Cc4cccnc4)c3)cc2C(F)(F)F)CC1 [XMD15-44] | 55 | 100 | > 30 | nb (Hits values higher than 30% were considered negative (no binding: nb)) | 0.05 | > 30 | 0.2 | > 30 | 0.35 | 100 | 1 | > 30 | 0 | > 30 | > 30 | > 30 | 62 | 
2 | 8.2 | CCN1CCN(Cc2ccc(NC(=O)c3ccc(C)c(/C=C/c4cnc5[nH]ccc5c4Cl)c3)cc2C(F)(F)F)CC1 [HG-6-63-01, (E)-3-(2-(4-chloro-1H-pyrrolo[2,3-b]pyridin-5-yl)vinyl)-N-(4-((4-ethylpiperazin-1-yl)methyl)-3-(trifluoromethyl)phenyl)-4-methylbenzamide] |  | > 30 | 1.2 | nb (Hits values higher than 30% were considered negative (no binding: nb)) | 2.4 | > 30 | 0 | > 30 |  | > 30 | 0.8 | 20 | 0.2 | > 30 | > 30 | > 30 | > 30 | > 30
3 |  | CCN1CCN(Cc2ccc(NC(=O)c3ccc(C)c(NC(=O)c4cncc(-c5cccs5)c4)c3)cc2C(F)(F)F)CC1 [ALW-II-41-27] |  | > 30 | > 30 | nb (Hits values higher than 30% were considered negative (no binding: nb)) | > 30 | > 30 | 0 | > 30 | 4.4 | > 30 | 12 | > 30 | 8.7 | > 30 | 12 | > 30 | > 30 | 22
